# Laboratory results reported in PMC9402538, “Rational design of a sensitivity-enhanced tracer for discovering efficient APC–Asef inhibitors” (Nature Communications, 2022).
# Values joined by “and” are separate entries in the source; they are usually repeats but may differ in a detail not shown here. Identical values can stand only once. Like-named read-outs stand apart in the source and are kept apart here. Where a SMILES comes first, the peptide text is derived from it. [ ]: non-standard residue; d: D form. The star is where a group is joined. Bpa = N[C@@H](Cc1ccc(C(=O)c2ccccc2)cc1)C(=O)O; Cyclohexanecarbonyl = O=C(C1CCCCC1)*; Cyclopentanecarbonyl = O=C(C1CCCC1)*; Benzoyl(4-OMe) = COc1ccc(C(=O)*)cc1; Isonicotinoyl = O=C(c1ccncc1)*; 2Furoyl = O=C(c1ccco1)*
# Target: T1, APC (303–739) (Homo sapiens, UniProt P25054)
# T1 sequence (P25054 303-739): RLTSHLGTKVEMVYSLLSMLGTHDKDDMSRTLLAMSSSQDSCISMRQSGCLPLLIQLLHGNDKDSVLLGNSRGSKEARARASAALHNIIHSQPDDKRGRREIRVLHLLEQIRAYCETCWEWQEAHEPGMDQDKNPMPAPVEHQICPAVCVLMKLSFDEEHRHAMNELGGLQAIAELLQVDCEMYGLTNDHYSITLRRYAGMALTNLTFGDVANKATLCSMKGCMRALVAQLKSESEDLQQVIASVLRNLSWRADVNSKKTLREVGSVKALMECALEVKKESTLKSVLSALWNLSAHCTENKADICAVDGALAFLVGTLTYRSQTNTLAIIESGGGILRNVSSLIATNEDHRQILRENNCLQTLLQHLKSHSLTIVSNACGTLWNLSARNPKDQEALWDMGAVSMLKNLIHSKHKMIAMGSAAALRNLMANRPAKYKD
# Assay: FP competitive assay using tracer 7
# Format: binding
# Procedure: FITC-labeled tracer peptides were obtained from Changzhou Kanglong Biotech Ltd. (Changzhou, Jiangsu, China). […]. The FP signal changes upon tracer binding were measured after 1.5 h of incubation using a Synergy neo microplate reader (BioTek Instruments, Inc.) and plotted against the protein concentration. The corresponding EC50 values were generated by fitting the curves with a nonlinear regression model. […]. To make a working solution, APC (303–739) was diluted in FP buffer (50 mM HEPES, pH 7.5, 300 mM NaCl, 1 mM EDTA, 1 mM DTT). The diluted APC protein (91 μL) was combined with a serial dilution of peptides (4 μL) and incubated at room temperature for 1 h, followed by the addition of 5 μL of 400 nM tracer 7. The FP signals were measured after 1.5 h of incubation at room temperature using a Synergy neo microplate reader. Three controls were included on each plate, i.e., blank (without protein and tracer), 100% inhibition (free tracer only), and 0% inhibition (protein/tracer complex only) controls. All experiments were performed in triplicate. The IC50 values of peptides were calculated by nonlinear regression analysis using GraphPad Prism 7.0 software.
# [1] = Repeat 1, Table 3 source data, read-out: IC50(μM) Repeat 1
# [2] = Repeat 2, Table 3 source data, read-out: IC50(μM) Repeat 2
# [3] = Repeat 3, Table 3 source data, read-out: IC50(μM) Repeat 3
# [4] = mean of 3 repeats, Table 3 source data, read-out: IC50(μM) mean
# [5] = Conc. 0.0049 μM, individual repeats, Fig3b
# [6] = Conc. 0.0098 μM, individual repeats, Fig3b
# [7] = Conc. 0.0195 μM, individual repeats, Fig3b
# [8] = Conc. 0.0391 μM, individual repeats, Fig3b
# [9] = Conc. 0.0781 μM, individual repeats, Fig3b
# [10] = Conc. 0.1563 μM, individual repeats, Fig3b
# [11] = Conc. 0.3125 μM, individual repeats, Fig3b
# [12] = Conc. 0.625 μM, individual repeats, Fig3b
# [13] = Conc. 2.5 μM, individual repeats, Fig3b
# [14] = Conc. 5 μM, individual repeats, Fig3b
# [15] = Conc. 10 μM, individual repeats, Fig3b
# [16] = Conc. 20 μM, individual repeats, Fig3b
structure (smiles),measurement,setting,value
CC(C)C[C@H](NC(=O)[C@H](CO)NC(=O)[C@H](CCC(=O)O)NC(=O)CNC(=O)[C@H](C)NC(=O)C1CCCCC1)C(=O)N[C@@H](Cc1ccc(O)cc1)C(=O)N[C@@H](CCC(=O)O)C(N)=O [MAI-504] (Cyclohexanecarbonyl-AGESLYE-NH2),IC50,[1],2.24 µM
same,IC50,[2],1.66 µM
same,IC50,[3],1.59 µM
same,IC50,[4],1.83 µM
COc1ccc(C(=O)N[C@@H](C)C(=O)NCC(=O)N[C@@H](CCC(=O)O)C(=O)N[C@@H](CO)C(=O)N[C@@H](CC(C)C)C(=O)N[C@@H](Cc2ccc(O)cc2)C(=O)N[C@@H](Cc2ccc(C(=O)c3ccccc3)cc2)C(N)=O)cc1 [MAI-521] ({Benzoyl(4-OMe)}-AGESLY[Bpa]-NH2),inhibition at 0.0015 µM,"Conc. 0.0015 μM, individual repeats, Fig3b",1.5%
same,%inhibition,"Conc. 0.0024 μM, individual repeats, Fig3b",-0.4% and 2.8%
same,inhibition at 0.0031 µM,"Conc. 0.0031 μM, individual repeats, Fig3b",2%
same,%inhibition,[5],2.6%
same,inhibition at 0.0049 µM,[5],1.8%
same,inhibition at 0.006 µM,"Conc. 0.006 μM, individual repeats, Fig3b",3.2%
same,%inhibition,[6],10.8%
same,inhibition at 0.0098 µM,[6],6.3%
same,inhibition at 0.012 µM,"Conc. 0.012 μM, individual repeats, Fig3b",9%
same,%inhibition,[7],24.3%
same,inhibition at 0.0195 µM,[7],16%
same,inhibition at 0.024 µM,"Conc. 0.024 μM, individual repeats, Fig3b",22.1%
same,%inhibition,[8],41%
same,inhibition at 0.0391 µM,[8],35.5%
same,inhibition at 0.049 µM,"Conc. 0.049 μM, individual repeats, Fig3b",39.2%
same,%inhibition,[9],60.9%
same,inhibition at 0.0781 µM,[9],56.4%
same,inhibition at 0.098 µM,"Conc. 0.098 μM, individual repeats, Fig3b",74.8%
same,%inhibition,[10],75%
same,inhibition at 0.1563 µM,[10],74.4%
same,inhibition at 0.195 µM,"Conc. 0.195 μM, individual repeats, Fig3b",77.9%
same,%inhibition,[11],86.3%
same,inhibition at 0.3125 µM,[11],86%
same,inhibition at 0.391 µM,"Conc. 0.391 μM, individual repeats, Fig3b",87.6%
same,%inhibition,[12],93.8%
same,inhibition at 0.625 µM,[12],92%
same,inhibition at 0.781 µM,"Conc. 0.781 μM, individual repeats, Fig3b",92.8%
same,inhibition at 1.25 µM,"Conc. 1.25 μM, individual repeats, Fig3b",95.3%
same,inhibition at 1.563 µM,"Conc. 1.563 μM, individual repeats, Fig3b",95.7%
same,%inhibition,[13],98.9%
same,inhibition at 2.5 µM,[13],96.1%
same,inhibition at 3.125 µM,"Conc. 3.125 μM, individual repeats, Fig3b",97.1%
same,%inhibition,[14],100.8%
same,inhibition at 5 µM,[14],96.6%
same,inhibition at 6.25 µM,"Conc. 6.25 μM, individual repeats, Fig3b",98.3%
same,%inhibition,[15],101.1%
same,inhibition at 10 µM,[15],97.4%
same,inhibition at 12.5 µM,"Conc. 12.5 μM, individual repeats, Fig3b",97.7%
same,%inhibition,[16],101.7%
same,inhibition at 20 µM,[16],97%
same,IC50,"IC50 Repeat 1, tracer 7",0.0536 µM
same,IC50,"IC50 Repeat 2, tracer 7",0.054 µM
same,IC50,"IC50 Repeat 3, tracer 7",0.0516 µM
same,IC50,"IC50 mean, tracer 7, mean of three repeats",0.0531 µM
same,"mean (FP signal, FigS5)","Repeat 1, Conc. 0.0015 μM",296.3
same,"mean (FP signal, FigS5)","Repeat 1, Conc. 0.0031 μM",295
same,"mean (FP signal, FigS5)","Repeat 1, Conc. 0.006 μM",292
same,"mean (FP signal, FigS5)","Repeat 1, Conc. 0.012 μM",277.7
same,"mean (FP signal, FigS5)","Repeat 1, Conc. 0.024 μM",245
same,"mean (FP signal, FigS5)","Repeat 1, Conc. 0.049 μM",202.3
same,"mean (FP signal, FigS5)","Repeat 1, Conc. 0.098 μM",113.7
same,"mean (FP signal, FigS5)","Repeat 1, Conc. 0.195 μM",106
same,"mean (FP signal, FigS5)","Repeat 1, Conc. 0.391 μM",82
same,"mean (FP signal, FigS5)","Repeat 1, Conc. 0.781 μM",69
same,"mean (FP signal, FigS5)","Repeat 1, Conc. 1.563 μM",61.7
same,"mean (FP signal, FigS5)","Repeat 1, Conc. 3.125 μM",58.3
same,"mean (FP signal, FigS5)","Repeat 1, Conc. 6.25 μM",55.3
same,"mean (FP signal, FigS5)","Repeat 1, Conc. 12.5 μM",56.7
same,"mean (FP signal, FigS5)","Repeat 2, Conc. 0.0024 μM",282.7
same,"mean (FP signal, FigS5)","Repeat 2, Conc. 0.0049 μM",277.5
same,"mean (FP signal, FigS5)","Repeat 2, Conc. 0.0098 μM",267
same,"mean (FP signal, FigS5)","Repeat 2, Conc. 0.0195 μM",244.3
same,"mean (FP signal, FigS5)","Repeat 2, Conc. 0.0391 μM",199
same,"mean (FP signal, FigS5)","Repeat 2, Conc. 0.0781 μM",150.3
same,"mean (FP signal, FigS5)","Repeat 2, Conc. 0.1563 μM",108.7
same,"mean (FP signal, FigS5)","Repeat 2, Conc. 0.3125 μM",81.7
same,"mean (FP signal, FigS5)","Repeat 2, Conc. 0.625 μM",67.7
same,"mean (FP signal, FigS5)","Repeat 2, Conc. 1.25 μM",60
same,"mean (FP signal, FigS5)","Repeat 2, Conc. 2.5 μM",58
same,"mean (FP signal, FigS5)","Repeat 2, Conc. 5 μM",57
same,"mean (FP signal, FigS5)","Repeat 2, Conc. 10 μM",55
same,"mean (FP signal, FigS5)","Repeat 2, Conc. 20 μM",56
same,"mean (FP signal, FigS5)","Repeat 3, Conc. 0.0024 μM",286
same,"mean (FP signal, FigS5)","Repeat 3, Conc. 0.0049 μM",286.5
same,"mean (FP signal, FigS5)","Repeat 3, Conc. 0.0098 μM",266.5
same,"mean (FP signal, FigS5)","Repeat 3, Conc. 0.0195 μM",234
same,"mean (FP signal, FigS5)","Repeat 3, Conc. 0.0391 μM",193.7
same,"mean (FP signal, FigS5)","Repeat 3, Conc. 0.0781 μM",145.7
same,"mean (FP signal, FigS5)","Repeat 3, Conc. 0.1563 μM",111.7
same,"mean (FP signal, FigS5)","Repeat 3, Conc. 0.3125 μM",84.3
same,"mean (FP signal, FigS5)","Repeat 3, Conc. 0.625 μM",66.3
same,"mean (FP signal, FigS5)","Repeat 3, Conc. 1.25 μM",58.7
same,"mean (FP signal, FigS5)","Repeat 3, Conc. 2.5 μM",54
same,"mean (FP signal, FigS5)","Repeat 3, Conc. 5 μM",49.3
same,"mean (FP signal, FigS5)","Repeat 3, Conc. 10 μM",48.7
same,"mean (FP signal, FigS5)","Repeat 3, Conc. 20 μM",47.3
CC(C)C[C@H](NC(=O)[C@H](CO)NC(=O)[C@H](CCC(=O)O)NC(=O)CNC(=O)[C@H](C)NC(=O)c1ccncc1)C(=O)N[C@@H](Cc1ccc(O)cc1)C(=O)N[C@@H](CCC(=O)O)C(N)=O [MAI-514] (Isonicotinoyl-AGESLYE-NH2),IC50,[1],0.116 µM
same,IC50,[2],0.128 µM
same,IC50,[3],0.0999 µM
same,IC50,[4],0.114 µM
CC(C)C[C@H](NC(=O)[C@H](CO)NC(=O)[C@H](CCC(=O)O)NC(=O)CNC(=O)[C@H](C)NC(=O)c1ccco1)C(=O)N[C@@H](Cc1ccc(O)cc1)C(=O)N[C@@H](CCC(=O)O)C(N)=O [MAI-506] (2Furoyl-AGESLYE-NH2),IC50,[1],0.323 µM
same,IC50,[2],0.419 µM
same,IC50,[3],0.457 µM
same,IC50,[4],0.4 µM
CC(C)C[C@H](NC(=O)[C@H](CO)NC(=O)[C@H](CCC(=O)O)NC(=O)CNC(=O)[C@H](C)NC(=O)C1CCCC1)C(=O)N[C@@H](Cc1ccc(O)cc1)C(=O)N[C@@H](CCC(=O)O)C(N)=O [MAI-503] (Cyclopentanecarbonyl-AGESLYE-NH2),IC50,[1],7.09 µM
same,IC50,[2],5.22 µM
same,IC50,[3],5.07 µM
same,IC50,[4],5.79 µM
